Assays:
Type in all cases: cell-based, human
control fibroblasts [1] = experiment: Dose-response test of control fibroblasts with PQ (cell death); details: 300 uM PQ, 48 hrs
Method: (§1) Cell viability was assessed using the CytoTox-ONE Homogeneous Membrane integrity Assay kit (Cat. No 07890, Promega, Madison, Wis.), which is a fluorescent measure of lactate dehydrogenase (LDH) released from cells with a damaged membrane by conversion of resazurin into resorufin. The assay was performed in a 96-well format according to the manufacturers' instructions. Briefly, 10,000 cells/well of control cells and 12,500 cells/well of SNCA-Tri fibroblasts were used for paraquat (PQ) exposure experiments; 12,500 cells/well were used in siRNA knockout experiments. Cell number was measured using WST-1 proliferation reagent (Roche, Indianapolis, Ind.) in a parallel plate.
(§2) Cells were exposed to freshly prepared PQ (N,N′-dimethyl-4,4′-bipyridinium dichloride) (Sigma, M2254) at 300 uM final concentration in culture media for 48 hours without media change prior to analysis.

control fibroblasts [2] = experiment: Cell viability: LDH release (CytoTox-ONE) after paraquat exposure; details: controls, 300 uM PQ, 48 hrs
Method: as §1, §2

SNCA-Tri fibroblasts [3] = experiment: Cell viability: LDH release (CytoTox-ONE) after paraquat exposure / siRNA knockdown; details: 300 uM PQ, 48 hrs
Method: as §1, §2
(§3) The sequence of SNCA1 siRNA were used after the method of Fountaine et al, 2008. Custom siRNA (Dharmacon, Lafayette, Colo.) at a concentration of 75 nM (scrambled or α-syn targeted siRNA, SNCA1) was transfected at 90% cell confluency using […] Lipofectamine™ 2000 (Invitrogen) according to the manufacturer's instruction. Transfection efficiency was tested to be >90% with siGLO Cyclophilin B control siRNA (Dharmacon) in control fibroblasts.

control fibroblasts [4] = experiment: Cellular ATP levels (ATPlite) after paraquat exposure; details: controls, 300 uM PQ, 48 hrs
Method: (§4) Cellular adenosine triphosphate (ATP) levels were measured using the ATPlite kit (Cat. No. 6016943, Perkin Elmer, Waltham, Mass.) based on the reaction of ATP with added lucifcrase and D-luciferin, according to the manufacturer's instruction. ATP synthesis assays were performed on digitonin-treated fibroblasts. Briefly, for paraquat (PQ) exposure, cells were plated (6,000 cells/well in control cells and 7,500 cells/well in SNCA-Tri cells) for 24 hours prior to exposure to PQ.
as §2

SNCA-Tri fibroblasts [5] = experiment: Cellular ATP levels (ATPlite) after paraquat exposure / siRNA knockdown; details: 300 uM PQ, 48 hrs
Method: as §4, §2, §3

control fibroblasts [6] = experiment: Mitochondrial membrane potential (TMRM) after paraquat exposure; details: controls, 300 uM PQ, 48 hrs
Method: (§5) Fibroblasts were plated in 96-well plates (6,000 cells/well in the control and 7,500 cells/well in SNCA-Tri cells) and were used for paraquat (PQ) exposure experiments. After 24 hours, cells were changed to galactose medium and cultured for another 24 hours. The mitochondrial membrane potential was measured using the fluorescent dye tetramethylrhodamine methyl ester (TMRM) (Invitrogen) at the final concentration of 150 nM. Cells were incubated for 5 minutes at 37° C. and then washed with phosphate buffered saline (PBS). To remove the plasma membrane contribution from the TMRM fluorescence, each assay was performed in parallel with 10 uM carbonyl cyanide 3-chlorophenylhydrazone (CCCP) (Sigma, St Louis, Mo.), which collapses the mitochondrial membrane potential. All data were expressed as the total TMRM fluorescence minus the CCCP-treated TMRM fluorescence. Cell number was measured using WST-1 proliferation reagent in a parallel plate, according to the manufacturer's instruction. All measurements were performed on a TECAN GENios.
as §2

SNCA-Tri fibroblasts [7] = experiment: Mitochondrial membrane potential (TMRM) after paraquat exposure / siRNA knockdown; details: 300 uM PQ, 48 hrs
Method: as §5, §2, §3

[8] = system: α-syn mRNA expression in SNCA-Tri fibroblasts; experiment: α-syn mRNA expression by qPCR after paraquat exposure
Method: as §2
(§6) Total RNA was extracted from fibroblasts using TRIzol® (Invitrogen). cDNA from 0.5 ug total RNA was synthesized by reverse transcriptase (iScript cDNA synthesis kit, BioRad, Hercules, Calif.). Primer sequences of SNCA are SNCA-F: AGTTGTGGCTGCTGCTGAG (SEQ ID NO:1) and SNCA-R: […] (SEQ ID NO:2) and of beta-actin are HuActin-F: […] (SEQ ID NO:3) and HuActin-R: GCATTTGCGGTGGACGAT (SEQ ID NO:4). The PCR products of SNCA and beta-actin (as internal control) were amplified using the SYBR Green PCR Master Mix (Applied Biosystems, Carlsbad, Calif.). Amplification of the PCR products was quantitatively measured by the ABI 7000 Sequence Detection System (Applied Biosystems). 2^−ΔΔCt method was used in all quantitative PCR analyses.

[9] = system: α-syn mRNA expression in control fibroblasts; experiment: as above; details: controls, vs naive expression
Method: as §2, §6

C[n+]1ccc(-c2cc[n+](C)cc2)cc1.[Cl-].[Cl-] [PQ, N,N′-dimethyl-4,4′-bipyridinium dichloride]
cell death (control fibroblasts [1]): about 25% | LDH release, % change untreated vs PQ exposed (control fibroblasts [2]): 27% | LDH release change, fold difference SNCA-Tri vs controls (SNCA-Tri fibroblasts [3]; 42% vs 27%): 1.6 fold | increase of LDH release in SNCA-Tri compared to controls after PQ exposure (SNCA-Tri fibroblasts [3]; SNCA-Tri vs controls): 46% | LDH release, % change (increase) untreated vs PQ exposed (SNCA-Tri fibroblasts [3]; SNCA-Tri): 42% | Cellular ATP decrease, untreated vs PQ exposed (control fibroblasts [4]): 33% | Cellular ATP change, fold change SNCA-Tri vs controls (SNCA-Tri fibroblasts [5]; 56% vs 33%): 1.7 fold | decrease of cellular ATP in SNCA-Tri compared to controls after PQ exposure (SNCA-Tri fibroblasts [5]; SNCA-Tri vs controls): 59% | Cellular ATP decrease, untreated vs PQ exposed (SNCA-Tri fibroblasts [5]; SNCA-Tri): 56% | Mitochondrial membrane potential decrease, untreated vs PQ exposed (control fibroblasts [6]): 40% | Mitochondrial membrane potential change, fold change SNCA-Tri vs controls (SNCA-Tri fibroblasts [7]; 61% vs 40%): 1.5 fold | reduction of mitochondrial membrane potential in SNCA-Tri compared to controls after PQ exposure (SNCA-Tri fibroblasts [7]; SNCA-Tri vs controls): 51% | Mitochondrial membrane potential decrease, untreated vs PQ exposed (SNCA-Tri fibroblasts [7]; SNCA-Tri): 61% | increase of α-syn mRNA expression after PQ exposure ([8]; SNCA-Tri, vs naive expression levels): 7.5 fold | α-syn mRNA, fold difference SNCA-Tri over control fibroblasts after PQ treatment ([8]; after PQ treatment): 3.2 fold | increase of α-syn mRNA expression after PQ exposure [9]: 2.6 fold

— US20150037257A1, “COMPOSITIONS AND METHODS FOR HIGH-THROUGHPUT SCREENING IN SKIN FIBROBLASTS WITH AN ALPHA-SYNUCLEIN TRIPLICATION” (priority 2011, published 2015)
